In patent US20250312469A1 (CANGET BIOTEKPHARMA, priority 2024, published 2025):
“And” between values parts separate entries of the source, which are not always exact repeats. Equal values may be shown once.

Key:
[1] = test system: Panc-1 and MiaPaca-2 cells; experiment: 3D cell spheroid formation and viability; format: cell-based, human
Experimental: 3D) cell spheroid formation studies: Pancreatic cancer cells were cultured in the ultra-low attachment plates in the pancreatic cancer organoid culture medium. In some studies, to observe the spheroid formation, DDX5 KO pancreatic cancer cells in the presence and absence of Agrin at a concentration of 2.5 μg/mL, 5 μg/mL and/or 10 μg/mL for 6-7 days were cultured. […] Representative images were take during this time and cell viability was determined by MTT assay.

[2] = test system: L5178Y TK+/− mouse lymphoma cells; experiment: Mouse Lymphoma Assay (MLA); details: for Avg. ACE / Avg. MF / Avg. RTG / Avg. SG: 4 h summary
Experimental: The cells were prepared in Fischer's or RPMI media supplemented with 10% heat-inactivated horse serum, penicillin-streptomycin, Lglutamine, sodium pyruvate and Pluronic F68. In the initial assay, prior to use in the test, the culture was purged of preexisting TK−/− mutations by exposure to THMG treated medium for 1 day, followed by a transfer to THG medium for 1 to 2 days. This was performed 5 to 8 days prior to testing. In the expanded assay a vial of frozen cells was thawed and used within 5 to 8 days of growth. No washing was needed because the cells were purged of preexisting TK−/− mutations by exposure to THMG treated medium for 1 day and then THG medium for 1 day prior to freezing. […] Colonies were counted using an automated colony counter or manually. After 4 or 24 hours of exposure, the cells were grown for recovery and expression for approximately 48 hours before plated in TFT cloning media. A second set of plates were prepared without TFT to assess viability of cells following treatment. […] Colonies observed on the TFT plate were defined as small or large colonies. […] (3) Of note, the metabolic activation system in this assay consisted of a rat liver homogenate (S-9 microsomal fraction), which was delivered to the test system in the presence of a core mix consisting of NADP and cofactors for NADPH-supported oxidation. The S9 was prepared using the following recipe (per treatment tube); 1 mL of 20 mg/mL S9, 32 mg of NADP, 60 mg of isocitric acid, 40 μL of calcium chloride (CaCl2) and 3.0 mL of cell cultural media. All treatments were performed in duplicate. The treatment tubes were placed in a CO2 incubator at 37±1° C. with continuous agitation.

SMILES: CCC1(O)C(=O)OCc2c1cc1n(c2=O)Cc2cc3cc4c(cc3nc2-1)OCO4 (stereo not shown) [FL118]
- 3D spheroid formation [1]: inhibited
- cell viability in 3D culture [1]: inhibited in a FL118 concentration-dependent manner
- concentrations considered unable to induce mutation ([2]; 4-hour +S9): ≤ 320 nM
- concentrations considered positive (mutagenic/clastogenic) ([2]; 4-hour -S9): > 100 nM
- concentrations considered unable to induce mutation ([2]; 4-hour -S9): ≤ 32 nM
- Average SG ([2]; 4 h, +S9, 0.1 uM): 12.9
- Day 1 Growth Cell Conc. ([2]; 4 h, +S9, 0.1 uM): 6.71E+05 Cell/mL and 7.82E+05 Cell/mL
- Day 2 Growth Cell Conc. ([2]; 4 h, +S9, 0.1 uM): 1.55E+06 Cell/mL and 1.64E+06 Cell/mL
- Suspension Growth (SG) ([2]; 4 h, +S9, 0.1 uM): 11.4 and 14.3
- Average SG ([2]; 4 h, +S9, 1 uM): 10.7
- Day 1 Growth Cell Conc. ([2]; 4 h, +S9, 1 uM): 7.55E+05 Cell/mL and 6.56E+05 Cell/mL
- Day 2 Growth Cell Conc. ([2]; 4 h, +S9, 1 uM): 1.27E+06 Cell/mL and 1.45E+06 Cell/mL
- Suspension Growth (SG) ([2]; 4 h, +S9, 1 uM): 10.5 and 10.8
- concentrations considered positive (mutagenic/clastogenic) ([2]; 4 hour +S9): > 1000 nM
- Avg. ACE ([2]; +S9, 0.1 uM): 82.5%
- Avg. MF ([2]; +S9, 0.1 uM): 71 ×10^−6
- Avg. RTG ([2]; +S9, 0.1 uM): 98.8%
- Avg. SG ([2]; +S9, 0.1 uM): 12.9
- Avg. ACE ([2]; +S9, 1 uM): 62.3%
- Avg. MF ([2]; +S9, 1 uM): 231 ×10^−6
- Avg. RTG ([2]; +S9, 1 uM): 81.5%
- Avg. SG ([2]; +S9, 1 uM): 10.7
- Average SG ([2]; 24 h, 0.001 uM): 66.2
- Suspension Growth (SG) ([2]; 24 h, 0.001 uM): 55.8 and 65.5
- Average SG ([2]; 24 h, 0.1 uM): 29.1
- Suspension Growth (SG) ([2]; 24 h, 0.1 uM): 29.0 and 29.1
- concentrations considered positive (mutagenic/clastogenic) ([2]; 24 hour -S9): ≥ 100 nM
- concentrations considered unable to induce mutation ([2]; 24 hour -S9): ≤ 32 nM
